These results are taken from patent US20160145257A1, “SUBSTITUTED XANTHINES AND METHODS OF USE THEREOF” (Hydra Biosciences, Inc., priority 2013, published 2016).

Counter-ions that a name gives are not always drawn.

The experiment concerns the target T1, hTRPC5 (Homo sapiens, UniProt Q9UL62).
T1 construct: expressed in transfected cells; host or cells: HEK293 TREx cells with inducible TRPC5 expression
T1 sequence (Q9UL62 1-973): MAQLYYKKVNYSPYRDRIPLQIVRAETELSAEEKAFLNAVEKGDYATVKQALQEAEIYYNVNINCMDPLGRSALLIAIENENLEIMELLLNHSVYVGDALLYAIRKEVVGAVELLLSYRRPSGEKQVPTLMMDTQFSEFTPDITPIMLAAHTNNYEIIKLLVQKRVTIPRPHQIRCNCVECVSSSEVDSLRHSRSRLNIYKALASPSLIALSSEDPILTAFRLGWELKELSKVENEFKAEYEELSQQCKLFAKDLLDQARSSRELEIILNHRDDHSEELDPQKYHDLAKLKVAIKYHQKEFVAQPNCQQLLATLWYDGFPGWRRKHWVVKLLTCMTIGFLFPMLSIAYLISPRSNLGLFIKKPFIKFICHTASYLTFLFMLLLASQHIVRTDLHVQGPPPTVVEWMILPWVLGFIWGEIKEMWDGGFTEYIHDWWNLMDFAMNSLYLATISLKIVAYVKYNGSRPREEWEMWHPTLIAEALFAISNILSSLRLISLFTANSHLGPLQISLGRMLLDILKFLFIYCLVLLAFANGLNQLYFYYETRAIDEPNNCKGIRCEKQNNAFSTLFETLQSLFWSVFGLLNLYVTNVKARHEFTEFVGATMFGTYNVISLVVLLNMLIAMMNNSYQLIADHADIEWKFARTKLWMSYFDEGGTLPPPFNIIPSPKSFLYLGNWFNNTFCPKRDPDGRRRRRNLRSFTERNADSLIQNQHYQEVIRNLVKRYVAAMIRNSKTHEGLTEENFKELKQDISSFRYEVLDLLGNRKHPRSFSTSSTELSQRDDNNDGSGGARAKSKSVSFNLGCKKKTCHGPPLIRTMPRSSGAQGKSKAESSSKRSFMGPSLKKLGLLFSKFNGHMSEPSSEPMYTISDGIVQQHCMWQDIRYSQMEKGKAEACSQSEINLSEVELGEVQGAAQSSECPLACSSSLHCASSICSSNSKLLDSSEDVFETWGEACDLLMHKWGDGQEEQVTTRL
The experiment is described as follows: Whole-cell patch clamp, block of LaCl3-activated TRPC5 inward current. The experiment is classed as cell-based. The note with it: TRPC5-expressing HEK293 TREx cells, 80 μM LaCl3, inward current, IC50 estimated from 5 μM and 500 nM, read-out: hTRPC5 Patch La3+ Inwd (nM) (All Batches). As for the experimental part:
In certain embodiments, exemplary compounds of Formula I and Formula II include the compounds described in Table 1 and in the Examples. A compound described herein may be tested for its ability to block both inward and outward currents through the TRPC5 channel, e.g., by an assay as described in Example 1. For example, IC50 of a compound of Formula I or Formula II was estimated by testing the compound at 5 μM and 500 nM. […] IC50 for a compound of Formula I or Formula II between 500 nM and 5 μM was similarly estimated. As shown, “A” refers to an IC50<100 nM. “B” refers to an IC50 between 100 nM and 500 nM. “C” refers to an IC50 between 500 nM and 1000 nM. “D” refers to an IC50 between 1 μM and 2 μM. “E” refers to an IC50 between 2 μM and 10 μM. “F” refers to […]. “ND” refers to compounds wherein the IC50 was not determined.
Patch clamp experiments permit the detection of currents through the TRPC5 channel in the cell line described above. In normal whole-cell patch clamp recordings, a glass electrode is brought into contact with a single cell and a high-resistance (gigaohm) seal is established with the cell membrane. The membrane is then ruptured to achieve the whole-cell configuration, permitting control of the voltage of the cell membrane and measurement of currents flowing across the membrane using the amplifier attached to the electrode and resulting in the replacement of cytoplasm with the pipette solution. A perfusion system permits control of the extracellular solution, including the addition of blockers and activators of the current. The current can be activated by including 1.4 μM free Ca^2+ in the pipette (intracellular) solution, and 80 μM LaCl3 in the extracellular solution.
TRPC5 cells were induced 20-48 hours, removed from growth plates, and replated at low density (to attain good single-cell physical separation) on glass coverslips for measurement. In some cases, cells were grown in low density overnight on glass coverslips. Patch clamp recordings were made in the whole-cell mode with a holding potential of −40 mV. Every 5 seconds, a voltage ramp was applied from −120 to +100 mV, 400 ms in duration. Currents elicited were quantified at −80 mV and +80 mV. The internal solution consisted of 140 mM cesium aspartate, 10 mM HEDTA, 2 mM CaCl2, 2.27 mM MgCl2 and 10 mM HEPES, pH 7.2, with 1,400 nM calculated free Ca^2+. The external solution consisted of 150 mM NaCl, 4.5 mM KCl, 1 mM MgCl2, 2 mM CaCl2, 10 mM HEPES, 10 mM glucose, 1 mM EGTA, pH 7.4. Upon addition of LaCl3, TRPC5 current was induced only in TRPC5-expressing cells and not in parental HEK293 TREx cells. Removal of the LaCl3 stimulus causes most of the current to go away. Potential blockers were tested for ability to block both inward and outward currents in the continued presence of LaCl3.
IC50 of a compound of Formula I or Formula II was estimated by testing the compound at 5 μM and 500 nM. […] IC50 for a compound of Formula I or Formula II between 500 nM and 5 μM was similarly estimated.
As to `CCOC(=O)Cc1nc2c(c(=O)n(C)c(=O)n2C)n1Cc1cccc(Br)c1` [Compound 34, Ethyl 2-(7-(3-bromobenzyl)-1,3-dimethyl-2,6-dioxo-2,3,6,7-tetrahydro-1H-purin-8yl)acetate], the IC50 was 2000 to 10000 nM.
As for `Cn1c(=O)c2c(nc(CO)n2Cc2cccc(Br)c2)n(C)c1=O` [Compound 35], the IC50 was 2000 to 10000 nM.
Next, `CCOC(=O)/C=C/c1nc2c(c(=O)n(C)c(=O)n2C)n1Cc1cccc(Br)c1` [Compound 36]: 2000 to 10000 nM.
On to `CCOC(=O)CCc1nc2c(c(=O)n(C)c(=O)n2C)n1Cc1cccc(Br)c1` [Compound 37, ethyl 3-(7-(3-bromobenzyl)-1,3-dimethyl-2,6-dioxo-2,3,6,7-tetrahydro-1H-purin-8-yl)propanoate], for which the IC50 is 2000 to 10000 nM.
Turning to `Cn1c(=O)c2c(nc(CC(=O)NCCO)n2Cc2cccc(Br)c2)n(C)c1=O` [Compound 38, 2-(7-(3-Bromobenzyl)-1,3-dimethyl-2,6-dioxo-2,3,6,7-tetrahydro-1H-purin-8-yl)-N-(2-hydroxyethyl)acetamide], the IC50 is 2000 to 10000 nM.
Turning to `Cn1c(=O)c2c(nc(CCO)n2Cc2cccc(Br)c2)n(C)c1=O` [Compound 39, 7-(3-Bromobenzyl)-8-(2-hydroxyethyl)-1,3-dimethyl-1H-purine-2,6(3H,7H)-dione], the IC50 is 2000 to 10000 nM.
For the compound `Cn1c(=O)c2c(nc(CCCl)n2Cc2cccc(Br)c2)n(C)c1=O` [Compound 40, 7-(3-Bromobenzyl)-8-(2-chloroethyl)-1,3-dimethyl-1H-purine-2,6(3H,7H)-dione], the IC50 is 2000 to 10000 nM.
For the compound `C=Cc1nc2c(c(=O)n(C)c(=O)n2C)n1Cc1cccc(Br)c1` [Compound 41, 7-(3-Bromobenzyl)-1,3-dimethyl-8-vinyl-1H-purine-2,6(3H,7H)-dione], the IC50 is 2000 to 10000 nM.
Next, `CCCOCCc1nc2c(c(=O)n(C)c(=O)n2C)n1Cc1cccc(Br)c1` [Compound 42, 7-(3-Bromobenzyl)-1,3-dimethyl-8-(2-propoxyethyl)-1H-purine-2,6(3H,7H)-dione]: 1000 to 2000 nM; `Cn1c(=O)c2c(nc(CCCO)n2Cc2cccc(Br)c2)n(C)c1=O` [Compound 43]: 2000 to 10000 nM; `CC1CCN(Cc2nc3c(c(=O)n(C)c(=O)n3C)n2Cc2cccc(Br)c2)CC1` [Compound 44]: 2000 to 10000 nM.
Regarding `Cn1c(=O)c2c(nc(COCc3ccccc3)n2Cc2cccc(Br)c2)n(C)c1=O` [Compound 45], the IC50 was 2000 to 10000 nM.
Turning to `CCCNCCc1nc2c(c(=O)n(C)c(=O)n2C)n1Cc1cccc(Br)c1` [Compound 46], the IC50 is 2000 to 10000 nM.
Next, `Cn1c(=O)c2c(nc(CCNCc3ccccc3)n2Cc2cccc(Br)c2)n(C)c1=O` [Compound 47, 8-(2-(Benzylamino)ethyl)-7-(3-bromobenzyl)-1,3-dimethyl-1H-purine-2,6(3H,7H)-dione]: 2000 to 10000 nM.
With `CCCN(C)CCc1nc2c(c(=O)n(C)c(=O)n2C)n1Cc1cccc(Br)c1` [Compound 48, 7-(3-Bromobenzyl)-1,3-dimethyl-8-(2-(methyl(propyl)amino)ethyl)-1H-purine-2,6(3H,7H)-dione hydrochloride], the IC50 was 2000 to 10000 nM.
For `CCCN(CCc1nc2c(c(=O)n(C)c(=O)n2C)n1Cc1cccc(Br)c1)C(C)=O` [Compound 49], the IC50 is 2000 to 10000 nM.
Turning to `CCOC(=O)CCCc1nc2c(c(=O)n(C)c(=O)n2C)n1Cc1cccc(Br)c1` [Compound 50, Ethyl 4-(7-(3-bromobenzyl)-1,3-dimethyl-2,6-dioxo-2,3,6,7-tetrahydro-1H-purin-8-yl)butanoate], the IC50 is 1000 to 2000 nM.
In the case of `CN1CCN(Cc2nc3c(c(=O)n(C)c(=O)n3C)n2Cc2cccc(Br)c2)CC1` [Compound 51] it was 2000 to 10000 nM; in that of `Cn1c(=O)c2c(nc(CN3CCOCC3)n2Cc2cccc(Br)c2)n(C)c1=O` [Compound 52], 2000 to 10000 nM; in that of `CCNCCCc1nc2c(c(=O)n(C)c(=O)n2C)n1Cc1cccc(Br)c1` [Compound 53], 2000 to 10000 nM.
For `CCOCCCc1nc2c(c(=O)n(C)c(=O)n2C)n1Cc1cccc(Br)c1` [Compound 54, 7-(3-bromobenzyl)-8-(3-ethoxypropyl)-1,3-dimethyl-1H-purine-2,6(3H,7H)-dione], the IC50 was 2000 to 10000 nM.
For the compound `CCCCOCc1nc2c(c(=O)n(C)c(=O)n2C)n1Cc1cccc(Br)c1` [Compound 55, 7-(3-bromobenzyl)-8-(butoxymethyl)-1,3-dimethyl-1H-purine-2,6(3H,7H)-dione], the IC50 was 500 to 1000 nM.
Next, `CCOCC(C)(C)Sc1nc2c(c(=O)n(C)c(=O)n2C)n1Cc1cccc(Br)c1` [Compound 56, 7-(3-bromobenzyl)-8-(1-ethoxy-2-methylpropan-2-ylthio)-1,3-dimethyl-1H-purine-2,6(3H,7H)-dione]: 1000 to 2000 nM; `CCOC(=O)c1cccc(Oc2nc3c(c(=O)n(C)c(=O)n3C)n2Cc2cccc(Br)c2)c1` [Compound 57, Ethyl 3-(7-(3-bromobenzyl)-1,3-dimethyl-2,6-dioxo-2,3,6,7-tetrahydro-1H-purin-8-yloxy)benzoate]: < 100 nM; `Cn1c(=O)c2c(nc(SCc3ccccc3F)n2Cc2ccc(Cl)c(Cl)c2)n(C)c1=O` [Compound 58]: 100 to 500 nM.
Consider `Cn1c(=O)c2c(nc(SCCCC#N)n2Cc2cccc(Cl)c2)n(C)c1=O` [Compound 62], for which the IC50 was 1000 to 2000 nM.
For `CN(Cc1ccccc1)c1nc2c(c(=O)n(C)c(=O)n2C)n1Cc1ccc(Cl)c(Cl)c1` [Compound 67], the IC50 was 2000 to 10000 nM.
In the case of `Cn1c(=O)c2c(nc(Oc3cccc(C(F)(F)F)c3)n2Cc2ccc(Cl)cc2)n(C)c1=O` [Compound 73] it was 100 to 500 nM; in that of `CCc1ccccc1Oc1nc2c(c(=O)n(C)c(=O)n2C)n1Cc1ccc(Cl)cc1` [Compound 74], 100 to 500 nM; in that of `Cc1ccc(Oc2nc3c(c(=O)n(C)c(=O)n3C)n2Cc2cccc(Cl)c2)cc1` [Compound 76], 2000 to 10000 nM.
Turning to `Cn1c(=O)c2c(nc(CCCN3CCCC3)n2Cc2cccc(Br)c2)n(C)c1=O` [Compound 81], the IC50 is 2000 to 10000 nM.
Consider `CCCOCCCc1nc2c(c(=O)n(C)c(=O)n2C)n1Cc1cccc(Br)c1` [Compound 82, 7-(3-bromobenzyl)-1,3-dimethyl-8-(3-propoxypropyl)-1H-purine-2,6(3H,7H)-dione], for which the IC50 is 1000 to 2000 nM.
In the case of `CCOC(=O)C(C)(C)CCc1nc2c(c(=O)n(C)c(=O)n2C)n1Cc1cccc(Br)c1` [Compound 83], the IC50 is 2000 to 10000 nM.
